Measured values as given in article PMC3435245, “D-Alanylation of Lipoteichoic Acids Confers Resistance to Cationic Peptides in Group B Streptococcus by Increasing the Cell Wall Density” (PLoS Pathogens, 2012).
In brackets after ≈: the same amount, converted by molar mass. Where a SMILES comes first, the peptide text is derived from it. [ ]: non-standard residue; d: D form.

Assays:
GBS ΔmprF mutant = test: MIC90 by dilution method, GBS ΔmprF; assay type: cell-based, Streptococcus agalactiae; settings: Todd-Hewitt broth with 100 mM HEPES, 2×10^6 CFU, 96-well polypropylene microplate, overnight 37°C, OD600 nm; average of triplicate measurements
Experimental: (§1) The MICs of each antimicrobial peptide were tested in Todd-Hewitt broth (THB) buffered with 100 mM HEPES in 96-well polypropylene microplates (Costar, Cambridge, MA) by a dilution method. Bacteria (2×10^6 CFU) were added in triplicates to wells containing increasing concentrations of the antimicrobial peptides. Plates were incubated at 37°C with shaking overnight and then read (OD600 nm) using microplate reader (Labsystems Multiskanat) for bacterial growth. The MICs90 was considered to be the peptide concentration that inhibited 90% growth.

GBS WT and dltA strains = test: SYTOX green uptake assay (membrane perforation); assay type: cell-based, Streptococcus agalactiae; settings: 30 min exposure, 1 µM SYTOX green, sodium phosphate buffer 20 mM pH 7.4, excitation 485 nm, emission 520 nm; triplicates
Source text: To determine whether altered susceptibility to CAMPs correlates with changes in membrane permeability, we measured the entrance of the cationic dye SYTOX green into the WT and dltA strains. SYTOX green cannot enter intact bacteria unless the membrane is disrupted by external compounds. Upon penetration into bacteria and binding to intracellular nucleic acids, its signal increases drastically. A dose-dependent enhancement of signal intensity was found following exposure to selected CAMPs.
Figure 2 Susceptibility of GBS strains to perforation by CAMPs. Peptide-dependent influx of the vital dye SYTOX green following 30 min exposure of GBS to magainin 2 (A), LL-37 (B), 5D-K6L9 (C) and K5L7 (D). Solid lines represent the WT strain whereas dashed lines represent the dltA muatnt. All readings were normalized by subtracting the basal fluorescence of the dye. Data are means ± SD of triplicate measurements.
Bacteria were washed twice, resuspended in sodium phosphate buffer (SPB, 20 mM, pH 7.4), and incubated with 1 µM SYTOX green for 20 min in the dark with agitation. Bacteria were added to a 96 well black plate (Nunc, Denmark) containing increasing concentrations of CAMPs and the increase in fluorescence, due to penetration and binding of the dye to intracellular DNA, was immediately monitored (excitation of 485 nm and emission of 520 nm). […]

GBS ΔdltA mutant = test: MIC90 by dilution method, GBS ΔdltA; assay type: cell-based, Streptococcus agalactiae; settings: Todd-Hewitt broth with 100 mM HEPES, 2×10^6 CFU, 96-well polypropylene microplate, overnight 37°C, OD600 nm; average of triplicate measurements
Experimental: as §1

GBS Δlgt Δlsp mutant = test: MIC90 by dilution method, GBS Δlgt Δlsp; assay type: cell-based, Streptococcus agalactiae; settings: Todd-Hewitt broth with 100 mM HEPES, 2×10^6 CFU, 96-well polypropylene microplate, overnight 37°C, OD600 nm; average of triplicate measurements
Experimental: as §1

GBS NEM316 WT strain = assay type: cell-based, Streptococcus agalactiae; settings: Todd-Hewitt broth with 100 mM HEPES, 2×10^6 CFU, 96-well polypropylene microplate, overnight 37°C, OD600 nm; average of triplicate measurements
Experimental: as §1

GBS ΔsrtA mutant = test: MIC90 by dilution method, GBS ΔsrtA; assay type: cell-based, Streptococcus agalactiae; settings: Todd-Hewitt broth with 100 mM HEPES, 2×10^6 CFU, 96-well polypropylene microplate, overnight 37°C, OD600 nm; average of triplicate measurements
Experimental: as §1

[1] = RP-HPLC hydrophobicity (% AcN at elution); assay type: physicochemical; settings: chromatographic, C4 reverse analytical column; eluted in 40 min, linear gradient of acetonitrile 30 to 70% v/v in water containing TFA (0.05% v/v)
Experimental: The procedure conducted as described previously. Briefly, peptides were synthesized using the Fmoc solid phase method on Rink amide resin ([…]). For fluorescent labeling of the N-terminus of the peptides, resin-bound peptides were treated with NBD or rhodamine dissolved in dimethyl formamide (DMF), washed thoroughly with DMF and then with methylene chloride, dried and then cleaved. […] The peptides were subjected to amino acid and mass spectrometry analysis to confirm their composition.

GBS ΔcpsD mutant = test: MIC90 by dilution method, GBS ΔcpsD; assay type: cell-based, Streptococcus agalactiae; settings: Todd-Hewitt broth with 100 mM HEPES, 2×10^6 CFU, 96-well polypropylene microplate, overnight 37°C, OD600 nm; average of triplicate measurements
Experimental: as §1

## CC(C)C[C@H](NC(=O)[C@H](CC(C)C)NC(=O)[C@@H](CCCCN)NC(=O)[C@H](CC(C)C)NC(=O)[C@H](CC(C)C)NC(=O)[C@H](CCCCN)NC(=O)[C@@H](CCCCN)NC(=O)[C@@H](CC(C)C)NC(=O)[C@H](CC(C)C)NC(=O)[C@@H](CCCCN)NC(=O)[C@H](CCCCN)NC(=O)[C@H](CC(C)C)NC(=O)[C@@H](CC(C)C)NC(=O)[C@H](CCCCN)NC(=O)[C@@H](N)CC(C)C)C(N)=O [5D-K6L9] (H-LK[dL]LK[dK]L[dL][dK]KLL[dK]LL-NH2; N-terminus assumed)
GBS ΔmprF mutant
  MIC90, ΔmprF: 4.4 µM (≈ 7.94 µg/mL)
GBS WT and dltA strains
  SYTOX green influx signal, dltA mutant compared to WT: similarly active on both strains
GBS ΔdltA mutant
  MIC90, ΔdltA: 2.2 µM (≈ 3.97 µg/mL)
GBS Δlgt Δlsp mutant
  MIC90, Δlgt Δlsp: 4.4 µM (≈ 7.94 µg/mL)
GBS NEM316 WT strain
  MIC90, WT: 4.4 µM (≈ 7.94 µg/mL)
GBS ΔsrtA mutant
  MIC90, ΔsrtA: 4.4 µM (≈ 7.94 µg/mL)
[1]
  Hydrophobicity (% AcN): 55.6 % AcN
GBS ΔcpsD mutant
  MIC90, ΔcpsD: 4.4 µM (≈ 7.94 µg/mL)
